According to US20050282755A1, “Compositions having antimicrobial activity and uses thereof” (priority 2004, published 2005):
Values after ≈ are worked out from the molar mass of the structure shown. Non-standard residues stand in square brackets, D forms with d. Residues, ends and D or L forms follow the SMILES beside them. *: point of attachment. Lauroyl = CCCCCCCCCCCC(=O)*

Experiments:
Assay type in all cases: cell-based
[1] = tested on: Propionibacterium acnes ATCC 6919; assay: MIC, agar dilution method NCCLS M11-A6, Brucella agar, anaerobic (Table 9, superscript c); conditions: ATCC 6919
Experimental: A bacterial suspension was prepared to allow for a final inoculum on the plate of 1.5×10^8 CFU/milliliter. After the suspension absorbed into the agar surface, the plates were incubated for 48-96 hours at 37° C. in a GasPak anaerobic chamber. The lowest concentration of peptide that contained no colony growth on the agar plate was determined as the MIC. MIC values that utilized this method of MIC determination are indicated in Table 9 with a superscript letter “c.”

[2] = tested on: Pseudomonas aeruginosa ATCC 27853; assay: MIC, NCCLS M7-A6 broth microdilution (Table 9, no superscript); conditions: ATCC 27853
Procedure, shortened: (§1)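 Values come from a broth microdilution assay run in cation-adjusted Mueller Hinton broth with an inoculum of 5×10^5 to 1×10^6 CFU/milliliter, incubated overnight at 37° C and read as absence of visible turbidity.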

[3] = tested on: Escherichia coli ATCC 25922; assay: as above; conditions: ATCC 25922
Procedure, shortened: as §1

Salmonella dublin (Lane) = assay: as above
Procedure, shortened: as §1

[4] = tested on: Staphylococcus epidermidis ATCC 12228; assay: as above; conditions: ATCC 12228
Procedure, shortened: as §1

[5] = tested on: Staphylococcus aureus ATCC 29213; assay: MIC, NCCLS M7-A6 broth microdilution, cation-adjusted Mueller Hinton broth (Table 9, no superscript); conditions: ATCC 29213
Procedure, shortened: as §1

SMILES	MIC P. acnes [1] [c ug/mL]	MIC P. aeruginosa [2] [µg/mL]	MIC E. coli [3] [µg/mL]	MIC S. dublin (Salmonella dublin (Lane)) [µg/mL]	MIC S. epidermidis [4] [µg/mL]	MIC S. aureus [5] [µg/mL]
CCCCCCCCCCCC(=O)N[C@H](CCCNC(=N)N)C(=O)N[C@H](CO)C(=O)N[C@H](CCCNC(=N)N)C(=O)N[C@H](Cc1c[nH]c2ccccc12)C(=O)N[C@H](CCCNC(=N)N)C(=O)N[C@H](CC(=O)O)C(=O)N[C@@H](C(=O)N[C@H](C)C(=O)N[C@H](CCCNC(=N)N)C(=O)N[C@H](CC(N)=O)C(=O)N[C@H](Cc1ccccc1)C(=O)N[C@H](CC(C)C)C(N)=O)C(C)C [Peptide 211, Lauryl-rsrwrdvarnfl-NH2] (Lauroyl-[dR][dS][dR][dW][dR][dD][dV][dA][dR][dN][dF][dL]-NH2)	4	64 (≈ 36.4 µM)	8 (≈ 4.55 µM)	4 (≈ 2.28 µM)	2 (≈ 1.14 µM)	4 (≈ 2.28 µM)
CCCCCCCCCCCC(=O)N[C@H](CO)C(=O)N[C@H](CCCNC(=N)N)C(=O)N[C@H](Cc1c[nH]c2ccccc12)C(=O)N[C@H](CCCNC(=N)N)C(=O)N[C@H](CC(=O)O)C(=O)N[C@@H](C(=O)N[C@H](C)C(=O)N[C@H](CCCNC(=N)N)C(=O)N[C@H](CC(N)=O)C(=O)N[C@H](Cc1ccccc1)C(=O)N[C@H](CC(C)C)C(=O)N[C@H](CCCNC(=N)N)C(N)=O)C(C)C [Peptide 212, Lauryl-srwrdvarnflr-NH2] (Lauroyl-[dS][dR][dW][dR][dD][dV][dA][dR][dN][dF][dL][dR]-NH2)	2	64 (≈ 36.4 µM)	8 (≈ 4.55 µM)	4 (≈ 2.28 µM)	2 (≈ 1.14 µM)	4 (≈ 2.28 µM)
CCCCCCCCCCCC(=O)N[C@H](CCCNC(=N)N)C(=O)N[C@H](CCCCN)C(=O)N[C@H](CCCNC(=N)N)C(=O)N[C@H](Cc1c[nH]c2ccccc12)C(=O)N[C@H](CCCNC(=N)N)C(=O)N[C@H](CC(=O)O)C(=O)N[C@@H](C(=O)N[C@H](C)C(=O)N[C@H](CCCNC(=N)N)C(=O)N[C@H](CC(N)=O)C(=O)N[C@H](Cc1ccccc1)C(=O)N[C@H](CC(C)C)C(=O)N[C@H](CCCNC(=N)N)C(N)=O)C(C)C [Peptide 219, Lauryl-rkrwrdvarnflr-NH2] (Lauroyl-[dR][dK][dR][dW][dR][dD][dV][dA][dR][dN][dF][dL][dR]-NH2)	16	4 (≈ 2.05 µM)	8 (≈ 4.09 µM)	4 (≈ 2.05 µM)	2 (≈ 1.02 µM)	4 (≈ 2.05 µM)
CCCCCCCCCCCC(=O)N[C@H](CCCNC(=N)N)C(=O)N[C@H](CCCCN)C(=O)N[C@H](CCCNC(=N)N)C(=O)N[C@H](Cc1c[nH]c2ccccc12)C(=O)N[C@H](CCCNC(=N)N)C(=O)N[C@H](CCC(=O)O)C(=O)N[C@@H](C(=O)N[C@H](C)C(=O)N[C@H](CCCNC(=N)N)C(=O)N[C@H](CC(N)=O)C(=O)N[C@H](Cc1ccccc1)C(=O)N[C@H](CC(C)C)C(=O)N[C@H](CCCNC(=N)N)C(N)=O)C(C)C [Peptide 220, Lauryl-rkrwrevarnflr-NH2] (Lauroyl-[dR][dK][dR][dW][dR][dE][dV][dA][dR][dN][dF][dL][dR]-NH2)	16	8 (≈ 4.06 µM)	4 (≈ 2.03 µM)	2 (≈ 1.02 µM)	1 (≈ 0.508 µM)	2 (≈ 1.02 µM)
CCCCCCCCCCCC(=O)N[C@H](CCCNC(=N)N)C(=O)N[C@H](C)C(=O)N[C@H](CCCNC(=N)N)C(=O)N[C@H](Cc1c[nH]c2ccccc12)C(=O)N[C@H](CCCNC(=N)N)C(=O)N[C@H](CC(=O)O)C(=O)N[C@@H](C(=O)N[C@H](C)C(=O)N[C@H](CCCNC(=N)N)C(=O)N[C@H](CC(N)=O)C(=O)N[C@H](Cc1ccccc1)C(=O)N[C@H](CC(C)C)C(=O)N[C@H](CCCNC(=N)N)C(N)=O)C(C)C [Peptide 224, Lauryl-rarwrdvarnflr-NH2] (Lauroyl-[dR][dA][dR][dW][dR][dD][dV][dA][dR][dN][dF][dL][dR]-NH2)	32	16 (≈ 8.43 µM)	8 (≈ 4.22 µM)	4 (≈ 2.11 µM)	2 (≈ 1.05 µM)	2 (≈ 1.05 µM)
CCCCCCCCCCCC(=O)N[C@H](CCCNC(=N)N)C(=O)N[C@H](CO)C(=O)N[C@H](CCCNC(=N)N)C(=O)N[C@H](Cc1c[nH]c2ccccc12)C(=O)N[C@H](CCCNC(=N)N)C(=O)N[C@H](C)C(=O)N[C@@H](C(=O)N[C@H](C)C(=O)N[C@H](CCCNC(=N)N)C(=O)N[C@H](CC(N)=O)C(=O)N[C@H](Cc1ccccc1)C(=O)N[C@H](CC(C)C)C(=O)N[C@H](CCCNC(=N)N)C(N)=O)C(C)C [Peptide 225, Lauryl-rsrwravarnflr-NH2] (Lauroyl-[dR][dS][dR][dW][dR][dA][dV][dA][dR][dN][dF][dL][dR]-NH2)	8	16 (≈ 8.56 µM)	16 (≈ 8.56 µM)	1 (≈ 0.535 µM)	2 (≈ 1.07 µM)	1 (≈ 0.535 µM)

The next lines start with the values.

MIC P. acnes [1] [c ug/mL]	MIC P. aeruginosa [2] [µg/mL]	MIC E. coli [3] [µg/mL]	MIC S. dublin (Salmonella dublin (Lane)) [µg/mL]	MIC S. epidermidis [4] [µg/mL]	MIC S. aureus [5] [µg/mL]	SMILES
32	>64	16 (≈ 8.55 µM)	16 (≈ 8.55 µM)	4 (≈ 2.14 µM)	8 (≈ 4.28 µM)	CCCCCCCCCCCC(=O)N[C@H](CCCNC(=N)N)C(=O)N[C@H](CO)C(=O)N[C@H](CCCNC(=N)N)C(=O)N[C@H](Cc1c[nH]c2ccccc12)C(=O)N[C@H](CCCNC(=N)N)C(=O)N[C@H](CC(=O)O)C(=O)N[C@@H](C(=O)N[C@H](C)C(=O)N[C@H](CCCNC(=N)N)C(=O)N[C@H](C)C(=O)N[C@H](Cc1ccccc1)C(=O)N[C@H](CC(C)C)C(=O)N[C@H](CCCNC(=N)N)C(N)=O)C(C)C [Peptide 226, Lauryl-rsrwrdvaraflr-NH2] (Lauroyl-[dR][dS][dR][dW][dR][dD][dV][dA][dR][dA][dF][dL][dR]-NH2)
>64	>64	64 (≈ 32.8 µM)	32 (≈ 16.4 µM)	32 (≈ 16.4 µM)	32 (≈ 16.4 µM)	CCCCCCCCCCCC(=O)N[C@H](CCCNC(=N)N)C(=O)N[C@H](CC(C)C)C(=O)N[C@H](CCCNC(=N)N)C(=O)N[C@H](Cc1c[nH]c2ccccc12)C(=O)N[C@H](CCCNC(=N)N)C(=O)N[C@H](CCC(=O)O)C(=O)N[C@@H](C(=O)N[C@H](C)C(=O)N[C@H](CCCNC(=N)N)C(=O)N[C@H](CC(C)C)C(=O)N[C@H](Cc1ccccc1)C(=O)N[C@H](CC(C)C)C(=O)N[C@H](CCCNC(=N)N)C(N)=O)C(C)C [Peptide 227, Lauryl-rlrwrevarlflr-NH2] (Lauroyl-[dR][dL][dR][dW][dR][dE][dV][dA][dR][dL][dF][dL][dR]-NH2)
16	64 (≈ 33.3 µM)	16 (≈ 8.34 µM)	>64	16 (≈ 8.34 µM)	16 (≈ 8.34 µM)	CCCCCCCCCCCC(=O)N[C@H](CCCNC(=N)N)C(=O)N[C@H](CO)C(=O)N[C@H](CCCNC(=N)N)C(=O)N[C@H](Cc1c[nH]c2ccccc12)C(=O)N[C@H](CCCNC(=N)N)C(=O)N[C@H](CC(=O)O)C(=O)N[C@H](CO)C(=O)N[C@H](C)C(=O)N[C@H](CCCNC(=N)N)C(=O)N[C@H](CC(N)=O)C(=O)N[C@H](Cc1ccccc1)C(=O)N[C@H](CCSC)C(=O)N[C@H](CCCNC(=N)N)C(N)=O [Peptide 233, Lauryl-rsrwrdsarnfmr-NH2] (Lauroyl-[dR][dS][dR][dW][dR][dD][dS][dA][dR][dN][dF][dM][dR]-NH2)
64	32 (≈ 27.7 µM)	32 (≈ 27.7 µM)	16 (≈ 13.9 µM)	8 (≈ 6.94 µM)	4 (≈ 3.47 µM)	CCCCCCCCCCCC(=O)N[C@@H](CCCNC(=N)N)C(=O)N[C@@H](Cc1c[nH]c2ccccc12)C(=O)N[C@@H](CCCNC(=N)N)C(=O)N[C@@H](CC(=O)O)C(=O)N[C@@H](CC(C)C)C(=O)N[C@@H](C)C(=O)N[C@@H](CCCNC(=N)N)C(N)=O [Peptide 241, Lauryl-RWRDLAR-NH2] (Lauroyl-RWRDLAR-NH2)
64	8 (≈ 7.21 µM)	16 (≈ 14.4 µM)	32 (≈ 28.8 µM)	2 (≈ 1.8 µM)	2 (≈ 1.8 µM)	CCCCCCCCCCCC(=O)N[C@@H](CCCNC(=N)N)C(=O)N[C@@H](Cc1c[nH]c2ccccc12)C(=O)N[C@@H](CCCNC(=N)N)C(=O)N[C@@H](C)C(=O)N[C@@H](CC(C)C)C(=O)N[C@@H](C)C(=O)N[C@@H](CCCNC(=N)N)C(N)=O [Peptide 242, Lauryl-RWRALAR-NH2] (Lauroyl-RWRALAR-NH2)
>64	>64	32 (≈ 29.2 µM)	>64	2 (≈ 1.83 µM)	4 (≈ 3.65 µM)	CCCCCCCCCCCC(=O)N[C@@H](CCCNC(=N)N)C(=O)N[C@@H](Cc1c[nH]c2ccccc12)C(=O)N[C@@H](CCCNC(=N)N)C(=O)N[C@@H](C)C(=O)N[C@H](C(=O)N[C@@H](C)C(=O)N[C@@H](CCCNC(=N)N)C(N)=O)C(C)C [Peptide 243, Lauryl-RWRAVAR-NH2] (Lauroyl-RWRAVAR-NH2)
